What was measured:
late watergrass = assay: Test Example 2: herbicidal activity, application during weed generation under submerged conditions (Table 17, symbol A); assay type: in vivo, late watergrass (Echinochloa oryzicola); settings: AAH 320 g/ha; application during weed generation, submerged conditions
Procedure, shortened: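 3-wk visual-criteria score after one water-surface dose. Emulsion formulation, water-diluted to set rate; applied at 1–2 leaf stage; alluvial soil, 4 cm standing water; seeds co-sown; greenhouse 25–30° C.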

barnyard grass [1] = assay: Test Example 3: herbicidal effect by foliage application, Wagner pot (Table 18, symbol H); assay type: in vivo, barnyard grass (Echinochloa crus-galli); settings: 320 g/ha
Procedure, shortened: (§1)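 Plants were sown in alluvial soil held under 0.1–0.5 cm standing water and grown 14 days in a greenhouse at 25–30 °C. An emulsifiable formulation, water-diluted to the set dose, was then sprayed onto the foliage, and effects were scored three weeks later using previously defined criteria.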

Chinese sprangletop = assay: Test Example 3: herbicidal effect by foliage application, Wagner pot (Table 18, symbol D); assay type: in vivo, chinese sprangletop (Leptochloa chinensis); settings: 320 g/ha
Procedure, shortened: as §1

southern crabgrass = assay: Test Example 4: herbicidal effect by soil treatment (Table 19, symbol F); assay type: in vivo, southern crabgrass (Digitaria ciliaris)
Procedure, shortened: (§2)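 Soil-surface application: an emulsion agent diluted with water to the predetermined dose is sprayed uniformly over seeds lying under roughly 1.5 cm of sterilized diluvial soil. Boxes stay in a greenhouse at 25° C. to 30° C. Three weeks later, each species is graded on previously defined criteria.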

barnyard grass [2] = assay: Test Example 4: herbicidal effect by soil treatment (Table 19, symbol H); assay type: in vivo, barnyard grass (Echinochloa crus-galli)
Procedure, shortened: as §2

blackgrass [3] = assay: Test Example 4: herbicidal effect by soil treatment (Table 19, symbol J); assay type: in vivo, blackgrass (Alopecurus myosuroides)
Procedure, shortened: as §2

redroot pigweed [4] = assay: Test Example 4: herbicidal effect by soil treatment (Table 19, symbol N); assay type: in vivo, redroot pigweed (Amaranthus retroflexus)
Procedure, shortened: as §2

lambsquarters = assay: Test Example 4: herbicidal effect by soil treatment (Table 19, symbol O); assay type: in vivo, lambsquarters (Chenopodium album)
Procedure, shortened: as §2

chickweed = assay: Test Example 4: herbicidal effect by soil treatment (Table 19, symbol P); assay type: in vivo, common chickweed (Stellaria media)
Procedure, shortened: as §2

barnyard grass [5] = assay: Test Example 5: herbicidal effect by foliage application, plastic box (Table 20, symbol H); assay type: in vivo, barnyard grass (Echinochloa crus-galli); settings: foliage application, 320 g/ha; for effect on barnyard grass (H): 3 weeks after application
Procedure, shortened: (§3)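 Sow seeds spot-wise in sterilized diluvial soil; cover with ~1.5 cm soil. Grow 14 days in greenhouse, 25° C. to 30° C. Spray foliage with emulsion diluted to predetermined amount. Rate effect after 3 weeks.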

wild oat = assay: Test Example 5: herbicidal effect by foliage application, plastic box (Table 20, symbol I); assay type: in vivo, wild oat (Avena fatua); settings: foliage application, 320 g/ha; for effect on wild oat (I): 3 weeks after application
Procedure, shortened: as §3

blackgrass [6] = assay: Test Example 5: herbicidal effect by foliage application, plastic box (Table 20, symbol J); assay type: in vivo, blackgrass (Alopecurus myosuroides); settings: foliage application, 320 g/ha; for effect on blackgrass (J): 3 weeks after application
Procedure, shortened: as §3

Italian ryegrass = assay: Test Example 5: herbicidal effect by foliage application, plastic box (Table 20, symbol K); assay type: in vivo, Italian ryegrass (Lolium multiflorum); settings: foliage application, 320 g/ha; for effect on Italian ryegrass (K): 3 weeks after application
Procedure, shortened: as §3

velvetleaf = assay: Test Example 5: herbicidal effect by foliage application, plastic box (Table 20, symbol M); assay type: in vivo, velvetleaf (Abutilon theophrasti); settings: foliage application, 320 g/ha; for effect on velvetleaf (M): 3 weeks after application
Procedure, shortened: as §3

redroot pigweed [7] = assay: Test Example 5: herbicidal effect by foliage application, plastic box (Table 20, symbol N); assay type: in vivo, redroot pigweed (Amaranthus retroflexus); settings: foliage application, 320 g/ha, three weeks after application
Procedure, shortened: as §3

persian speedwell = assay: Test Example 5: herbicidal effect by foliage application, plastic box (Table 20, symbol R); assay type: in vivo, Persian speedwell (Veronica persica); settings: foliage application, 320 g/ha; for effect on persian speedwell (R): 3 weeks after application
Procedure, shortened: as §3

[8] = amount of applied herbicide 320 g/ha

SMILES | herbicidal effect rating, A: late watergrass (late watergrass) | herbicidal effect on H (barnyard grass), rating 0-5 (barnyard grass [1]) | herbicidal effect on D (Chinese sprangletop), rating 0-5 (Chinese sprangletop) | herbicidal effect rating, F: southern crabgrass (southern crabgrass; 320 g/ha) | herbicidal effect rating, H: barnyard grass (barnyard grass [2]; 320 g/ha) | herbicidal effect rating, J: blackgrass (blackgrass [3]; 320 g/ha) | herbicidal effect rating, N: redroot pigweed (redroot pigweed [4]; 320 g/ha) | herbicidal effect rating, O: lambsquarters (lambsquarters; 320 g/ha) | herbicidal effect rating, P: chickweed (chickweed; 320 g/ha) | effect on barnyard grass (H) (barnyard grass [5]) | effect on wild oat (I) (wild oat) | effect on blackgrass (J) (blackgrass [6]) | effect on Italian ryegrass (K) (Italian ryegrass) | effect on velvetleaf (M) (velvetleaf) | effect on persian speedwell (R) (persian speedwell) | other results
CCCC(=O)Oc1c(C)nn(C)c(=O)c1-c1c(-c2ccc(OCC)cc2)sc2ccccc12 [1-014] | 3 (Herbicidal rate of 40% or more and less than 70%) | 4 (Herbicidal rate of 70% or more and less than 90%) | 0 (Herbicidal rate of 5% or less (almost no effect)) | – | – | – | – | – | – | – | – | – | – | – | – | herbicidal effect rating, F: southern crabgrass (southern crabgrass; [8]): 0 (Herbicidal rate of 5% or less (almost no effect)); herbicidal effect rating, H: barnyard grass (barnyard grass [2]; [8]): 2 (Herbicidal rate of 20% or more and less than 40%); herbicidal effect rating, J: blackgrass (blackgrass [3]; [8]): 0 (Herbicidal rate of 5% or less (almost no effect)); herbicidal effect rating, N: redroot pigweed (redroot pigweed [4]; [8]): 0 (Herbicidal rate of 5% or less (almost no effect)); herbicidal effect rating, O: lambsquarters (lambsquarters; [8]): 2 (Herbicidal rate of 20% or more and less than 40%); herbicidal effect rating, P: chickweed (chickweed; [8]): 4 (Herbicidal rate of 70% or more and less than 90%); herbicidal effect grade, H: barnyard grass (barnyard grass [5]; three weeks after application): 4 (Herbicidal rate of 70% or more and less than 90%); herbicidal effect grade, I: wild oat (wild oat; three weeks after application): 1 (Herbicidal rate of 5% or more and less than 20%); herbicidal effect grade, J: blackgrass (blackgrass [6]; three weeks after application): 0 (Herbicidal rate of 5% or less (almost no effect)); herbicidal effect grade, K: Italian ryegrass (Italian ryegrass; three weeks after application): 3 (Herbicidal rate of 40% or more and less than 70%); herbicidal effect grade, M: velvetleaf (velvetleaf; three weeks after application): 4 (Herbicidal rate of 70% or more and less than 90%); herbicidal effect grade, N: redroot pigweed (redroot pigweed [7]): 0 (Herbicidal rate of 5% or less (almost no effect)); herbicidal effect grade, R: persian speedwell (persian speedwell; three weeks after application): 5 (Herbicidal rate of 90% or more (almost completely withered))
Cc1nn(C)c(=O)c(-c2c(-c3ccc(OC(C)C)cc3)sc3ccc(F)cc23)c1O [2-034] | 1 (Herbicidal rate of 5% or more and less than 20%) | 5 (Herbicidal rate of 90% or more (almost completely withered)) | 0 (Herbicidal rate of 5% or less (almost no effect)) | 5 (Herbicidal rate of 90% or more (almost completely withered)) | 2 (Herbicidal rate of 20% or more and less than 40%) | 1 (Herbicidal rate of 5% or more and less than 20%) | 5 (Herbicidal rate of 90% or more (almost completely withered)) | 5 (Herbicidal rate of 90% or more (almost completely withered)) | 4 (Herbicidal rate of 70% or more and less than 90%) | 5 (Herbicidal rate of 90% or more (almost completely withered)) | 3 (Herbicidal rate of 40% or more and less than 70%) | 5 (Herbicidal rate of 90% or more (almost completely withered)) | 5 (Herbicidal rate of 90% or more (almost completely withered)) | 5 (Herbicidal rate of 90% or more (almost completely withered)) | 5 (Herbicidal rate of 90% or more (almost completely withered)) | –
CCCCOc1ccc(-c2sc3ccc(F)cc3c2-c2c(O)c(C)nn(C)c2=O)cc1 [2-036] | 0 (Herbicidal rate of 5% or less (almost no effect)) | 5 (Herbicidal rate of 90% or more (almost completely withered)) | 3 (Herbicidal rate of 40% or more and less than 70%) | 2 (Herbicidal rate of 20% or more and less than 40%) | 0 (Herbicidal rate of 5% or less (almost no effect)) | 0 (Herbicidal rate of 5% or less (almost no effect)) | 5 (Herbicidal rate of 90% or more (almost completely withered)) | 5 (Herbicidal rate of 90% or more (almost completely withered)) | 3 (Herbicidal rate of 40% or more and less than 70%) | 5 (Herbicidal rate of 90% or more (almost completely withered)) | 4 (Herbicidal rate of 70% or more and less than 90%) | 4 (Herbicidal rate of 70% or more and less than 90%) | 3 (Herbicidal rate of 40% or more and less than 70%) | 5 (Herbicidal rate of 90% or more (almost completely withered)) | 5 (Herbicidal rate of 90% or more (almost completely withered)) | –
CCCC(=O)Oc1c(C)nn(C)c(=O)c1-c1c(-c2ccc(OC(F)(F)F)cc2)sc2ccc(F)cc12 [2-046] | 1 (Herbicidal rate of 5% or more and less than 20%) | 5 (Herbicidal rate of 90% or more (almost completely withered)) | 3 (Herbicidal rate of 40% or more and less than 70%) | 2 (Herbicidal rate of 20% or more and less than 40%) | 3 (Herbicidal rate of 40% or more and less than 70%) | 0 (Herbicidal rate of 5% or less (almost no effect)) | 4 (Herbicidal rate of 70% or more and less than 90%) | 5 (Herbicidal rate of 90% or more (almost completely withered)) | 5 (Herbicidal rate of 90% or more (almost completely withered)) | 5 (Herbicidal rate of 90% or more (almost completely withered)) | 0 (Herbicidal rate of 5% or less (almost no effect)) | 0 (Herbicidal rate of 5% or less (almost no effect)) | 4 (Herbicidal rate of 70% or more and less than 90%) | 5 (Herbicidal rate of 90% or more (almost completely withered)) | 5 (Herbicidal rate of 90% or more (almost completely withered)) | –
Cc1nn(C)c(=O)c(-c2c(-c3ccc(OCCF)cc3)sc3ccc(F)cc23)c1O [2-047] | 0 (Herbicidal rate of 5% or less (almost no effect)) | 5 (Herbicidal rate of 90% or more (almost completely withered)) | 4 (Herbicidal rate of 70% or more and less than 90%) | 5 (Herbicidal rate of 90% or more (almost completely withered)) | 5 (Herbicidal rate of 90% or more (almost completely withered)) | 0 (Herbicidal rate of 5% or less (almost no effect)) | 5 (Herbicidal rate of 90% or more (almost completely withered)) | 5 (Herbicidal rate of 90% or more (almost completely withered)) | 4 (Herbicidal rate of 70% or more and less than 90%) | 5 (Herbicidal rate of 90% or more (almost completely withered)) | 3 (Herbicidal rate of 40% or more and less than 70%) | 4 (Herbicidal rate of 70% or more and less than 90%) | 4 (Herbicidal rate of 70% or more and less than 90%) | 5 (Herbicidal rate of 90% or more (almost completely withered)) | 5 (Herbicidal rate of 90% or more (almost completely withered)) | –

Source: US20230085307A1, “PYRIDAZINONE COMPOUND AND HERBICIDE” (NISSAN CHEMICAL CORPORATION, priority 2019, published 2023)
